From patent publication US20070276034A1, “Compounds, compositions and methods for the treatment of synucleinopathies” (priority 2002, published 2007)

How the values were obtained:
Assay type in all cases: biochemical
NAC fibrils = biological target: T1, NAC fibrils (Homo sapiens, UniProt P37840); test: Congo red binding assay with NAC fibrils; conditions: for % Inhibition NAC (result ± S.D.), Congo red binding: 3-day incubation
T1 construct: NAC is a 35-amino acid fragment of α-synuclein; purchased Bachem Inc
Experimental: (§1) In the Congo red binding assay, the ability of a given test compound to alter amyloid (in this case, NAC) binding to Congo red is quantified. In this assay, NAC and test compounds were incubated for 3 days and then vacuum filtered through a 0.2 μm filter. The amount of NAC retained in the filter was then quantitated following staining of the filter with Congo red. After appropriate washing of the filter, any lowering of the Congo red color on the filter in the presence of the test compound (compared to the Congo red staining of the amyloid protein in the absence of the test compound) was indicative of the test compound's ability to diminish/alter the amount of aggregated and congophilic NAC.
In one study, the ability of NAC fibrils to bind Congo red in the absence or presence of increasing amounts of compounds #1, 3, 23, 26, 63, 66, 67, or EDTA (at NAC:test compound weight ratios of 1:1, 1:0.1, 1:0.01 or 1:0.001) was determined.

Aβ 1-42 fibrils [1] = biological target: T2, Aβ 1-42 fibrils (Homo sapiens, UniProt P05067); test: Congo red binding assay with Aβ 1-42 fibrils; conditions: for % Inhibition Aβ (result ± S.D.), Congo red binding: 3-day incubation
T2 construct: purchased Bachem Inc
Experimental: as §1, with “binding assay” for “binding assay,”, “a” for “a given”, “case, Aβ)” for “case, NAC)”, “assay, Aβ 1-42” for “assay, NAC”, “of Aβ 1-42” for “of NAC”, “congophilic Aβ.” for “congophilic NAC.”
In one study, the ability of Aβ fibrils to bind Congo red in the absence or presence of increasing amounts of the compounds or EDTA (at Aβ:test compound weight ratios of 1:1, 1:0.1, 1:0.01 or 1:0.001) was determined.

Aβ 1-42 fibrils [2] = biological target: T2, Aβ 1-42 fibrils; test: Circular dichroism spectroscopy of Aβ 1-42 fibrils
Experimental: Circular dichroism (CD) spectroscopy is a method that can be used to determine the effects of test compounds to disrupt the secondary structure conformation of amyloid fibrils. In one study, as described in this example, circular dichroism spectroscopy was used to determine the effects of different compounds of the invention on β-sheet conformation of Aβ 1-42 fibrils. For this study, Aβ 1-42 (Bachem Inc., Torrance, Calif.) was first dissolved in a 2 mM NaOH solution, maintaining the pH of these solutions above 10. […] Aβ 1-42 was then incubated at 37° C. in the absence or presence of different compounds at an Aβ:test compound wt/wt ratios of 1:0.1, 1:1 and 1:10. After 3 days of incubation, CD spectra were recorded on a Jasco 810 spectropolarimeter (Easton, Md.). All CD spectra were collected with 0.05 cm quartz cells. Wavelength traces were scanned from 190-260 nm at 0.5 nm increments with a bandwidth of 5 nm, at a scan speed of 10 nm/minute, a response time of 32 seconds, and a data pitch of 0.5 nm. The whole system was equilibrated and continuously flushed with nitrogen at 10 ml/minute. […] Ellipticity in degrees was converted to MRE ([Q]; molar residue ellipticity) using the formula [Q]=100•[…]; where Q is the ellipticity in degrees; […]

[3] = NAC:test compound wt/wt ratio 1:0.1
[4] = NAC:test compound wt/wt ratio 1:1
[5] = Aβ:test compound wt/wt ratio 1:0.001
[6] = Aβ:test compound wt/wt ratio 1:0.1
[7] = Aβ:test compound wt/wt ratio 1:1
[8] = NAC:test compound wt/wt ratio 1:0.001
[9] = NAC:test compound wt/wt ratio 1:0.01
[10] = all concentrations tested (ratios 1:1 to 1:0.001), 3 days

T2 sequence (P05067 672-713): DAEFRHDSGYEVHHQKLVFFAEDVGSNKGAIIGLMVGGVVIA

SMILES | % Inhibition NAC (result ± S.D.), Congo red binding (NAC fibrils; [3]) [%] | % Inhibition NAC (result ± S.D.), Congo red binding (NAC fibrils; [4]) [%] | % Inhibition Aβ (result ± S.D.), Congo red binding (Aβ 1-42 fibrils [1]; [5]) [%] | % Inhibition Aβ (result ± S.D.), Congo red binding (Aβ 1-42 fibrils [1]; [6]) [%] | % Inhibition Aβ (result ± S.D.), Congo red binding (Aβ 1-42 fibrils [1]; [7]) [%] | % Inhibition NAC (result ± S.D.), Congo red binding (NAC fibrils; [8]) [%] | % Inhibition NAC (result ± S.D.), Congo red binding (NAC fibrils; [9]) [%] | other results
O=C(N[C@@H]1CCCC[C@H]1NC(=O)c1ccc(O)c(O)c1)c1ccc(O)c(O)c1 (relative stereo) [Compound 26, N,N′-bis(3,4-dihydroxybenzoyl)-trans-1,2-diaminocyclohexane] | 36.7 ± 5.59 | 34.4 ± 10.19 |  |  |  |  |  | 
O=C(c1ccc(O)c(O)c1)C(O)c1ccc(O)c(O)c1 (stereo not shown) [Compound 1, 3,4,3′,4′-tetrahydroxybenzoin] | 75.9 ± 2.58 | 75.4 ± 2.96 |  |  |  |  |  | 
Oc1ccc(Cc2ccc(O)c(O)c2)cc1O [Compound 3, 3,4,3′,4′-tetrahydroxydiphenylmethane] | 83.2±3.57 | 94.4±2.48 | 1.7 ± 4.21 | 35.7 ± 3.29 | 91.6±5.19 | 65.2 ± 5.40 | 81.7 ± 2.82 | 
O=C(Nc1ccc(O)c(O)c1)c1ccc(O)c(O)c1 [Compound 51, 3,4-dihydroxybenzoic acid 3,4-dihydroxyanilide] |  |  |  |  |  |  |  | disruption of β-sheet structure in Aβ 1-42 fibrils (CD minima at 218 nm) (Aβ 1-42 fibrils [2]; 3 days co-incubation, 25 μM Aβ 1-42 (FIG. 1, FIG. 2)): marked disruption of β-sheet structure; disruption of β-sheet structure of Aβ 1-42 fibrils (CD minima at 218 nm) (Aβ 1-42 fibrils [2]; Aβ:test compound wt/wt ratio of 1:10 (FIG. 3)): completely disrupt the β-sheet structure; dose-response of disruption of β-sheet structure of Aβ 1-42 fibrils (CD minima at 218 nm) (Aβ 1-42 fibrils [2]; Aβ:test compound wt/wt ratios of 1:0.1, 1:1 and 1:10 (FIG. 3)): dose-dependent decrease in the minima
O=C(CCC(=O)NCc1ccc(O)c(O)c1)NCc1ccc(O)c(O)c1 [Compound 67, succinic acid bis(3,4-dihydroxybenzylamide)] |  | 81.2 ± 2.87 |  |  |  |  |  | 
O=C(O)CN(CCN(CC(=O)O)CC(=O)O)CC(=O)O [EDTA, reference compound] | 0.0 ± 38.26 | 0.2 ± 7.33 | 7.91 ± 3.61 | 3.6 ± 8.68 | 1.1 ± 7.02 | 0.0 ± 20.57 | 0.0 ± 22.0 | % Inhibition Aβ (result ± S.D.), Congo red binding (Aβ 1-42 fibrils [1]; Aβ:test compound wt/wt ratio 1:0.01): 0.0 ± 3.91%; inhibition of Aβ 1-42 fibril binding to Congo red (in words) (Aβ 1-42 fibrils [1]; [10]): no significant inhibition; inhibition of NAC fibril binding to Congo red (in words) (NAC fibrils; [10]): no significant inhibition
